Two compounds from patent publication US20250333775A1, “DIAGNOSTIC TEST AND THERAPY FOR PATIENTS WITH AUTO-BREWERY SYNDROME” (The Regents of the University of California, priority 2024, published 2025) can be followed below.

Assay [1] concerns fecal microbiota from household partners. The assay can be described thus: Bioreactor cultures of fecal microbiota, ethanol production (household partners). The conditions noted are these: household partner samples, 24 hours; 10 μg/mL amphotericin B or 100 μg/mL chloramphenicol. Type of assay: cell-based, human. The protocol: (§1) 100 mg of stool collected from patients during flare and remission and from their household partners was cultured in bioreactor cultures which consisted of 10 mL of Luria Broth (LB) media supplemented with 2 mM glucose and 2 mM cysteine in anaerobic conditions using hungate tubes. This concentration of glucose was chosen to emulate physiologic glucose concentrations in the intestine. Bioreactor cultures were untreated or treated with 0.05% dimethyl sulfoxide (DMSO, vehicle), 10 μg/mL amphotericin B, or 100 μg/mL chloramphenicol. To emulate supraphysiologic concentrations of glucose in the GI tract, patient microbiota was also cultured in LB media supplemented with 100 mM and 200 mM of glucose anaerobically using hungate tubes. Samples were collected at 0, 6, and 24 hours of culturing and ethanol concentration was assessed by high-performance liquid chromatography (HPLC) using a 1260 Infinity IILC system (Agilent, Santa Clara, CA, USA) equipped with an HPX-87H (Biorad, Hercules, CA, USA) or by using an enzyme-based kit (Abcam, in less than 20% of samples, low limit of detection 50 ng/dL).

Assay [2] relates to fecal microbiota from patients with clinically documented Auto-brewery Syndrome. The assay can be described thus: Bioreactor cultures of fecal microbiota, ethanol production (ABS patients). Conditions: 24 hours. Type of assay: cell-based, human. As to the method: as §1
The mark [3] stands for this setting: samples from ABS patients, compared with DMSO vehicle control, 100 μg/mL chloramphenicol or 10 μg/mL amphotericin B.

The structures appear in SMILES notation.

`O=C(N[C@H](CO)[C@H](O)c1ccc([N+](=O)[O-])cc1)C(Cl)Cl` [chloramphenicol]: the “ethanol production in bioreactor cultures” value in assay [1] was “No significant difference”; in assay [2] (setting [3]), “significantly decreased”.

`C[C@@H]1[C@H](O)[C@@H](C)/C=C/C=C/C=C/C=C/C=C/C=C/C=C/[C@H](O[C@@H]2O[C@H](C)[C@@H](O)[C@H](N)[C@@H]2O)C[C@@H]2O[C@](O)(C[C@@H](O)C[C@@H](O)[C@H](O)CC[C@@H](O)C[C@@H](O)CC(=O)O[C@H]1C)C[C@H](O)[C@H]2C(=O)O` [amphotericin B]: the “ethanol production in bioreactor cultures” value in assay [1] is reported as “No significant difference”; in assay [2] (setting [3]), “did not have a significant effect”; in assay [2] (three ABS patient samples during a flare, 10 μg/mL amphotericin B), “partially reduced”.
